The text below walks through data of patent US9902783B2, “Antibodies and pharmaceutical compositions containing same useful for inhibiting activity of metalloproteins” (Yeda Research and Development Co. Ltd., priority 2007, dated 2018).

One data set relates to metastasis. To be noted: phase III, advanced cancer patients; cited from earlier work.
The conditions of data set [1]: patients; cited from earlier work.
Data set [2] has as its system cell surface gelatinolytic activity of HT1080 cells. As to the kind of experiment: in situ zymography with DQ-gelatin. To be noted: 15 μM SB-3CT. It is filed as cell-based, human. The procedure: To localize net gelatinolytic activity of MMPs by in situ zymography, fluorescein isothiocyanate-labeled DQ gelatin that is intramolecularly quenched (Molecular Probes) was used as a substrate for degradation by gelatinases. Proteolysis by gelatinases yields cleaved fluorescein isothiocyanate-gelatin peptides and the localization of this fluorescence indicates the sites of net gelatinolytic activity. Briefly, Human fibrosarcoma HT1080 cells (which produce MMP-2, MMP-9 and MT1-MMP) were plated on 12-mm coverslips. […] Untreated cells served as negative control for this experiment. Cells were washed with PBS and then incubated with zymography reaction buffer (0.05 M Tris-HCl, 0.15 M NaCl, 5 mM CaCl2, and 0.2 mM NaN3, pH 7.6, the high concentration of azide prevented the gelatin from being phagocytosed and thus allowing cell surface gelatinolytic activity to occur) containing 60 ug/ml DQ gelatin at 37° C. overnight. […] At the end of the incubation period, without fixation or further washes, gelatinolytic activity of the MMPs was localized and photographed by fluorescence microscopy and images were acquired by Spot digital camera.
To confirm the inhibitory activity of anti CoTCPP mAb at cellular level, the effect of the antibody was examined on gelatinolytic activity of human fibrosarcoma HT1080 cells that constitutively secrete MMP-2 and 9 by in situ zymography. To localize gelatinolytic activity of MMPs by in situ zymography, fluorescein isothiocyanate-labeled gelatin that is intramolecularly quenched (DQ-gelatin) was used as substrate. Proteolysis by gelatinases yields cleaved fluorescein isothiocyanate-gelatin peptides and the localization of this fluorescence indicates the sites of net gelatinolytic activity.

Another data set deals with MT1-MMP (Homo sapiens, UniProt P50281). Particulars: cited from earlier work.
The conditions of data set [3]: peptide-based hydroxamate; cited from earlier work.
In the next data set the target is TACE (ADAM-17) (Homo sapiens, UniProt P78536). As to the kind of experiment: kinetic assay with fluorogenic peptide QF-45, TACE. In kind it is biochemical. Particulars: Table 4.
TACE (ADAM-17), sequence (P78536 215-824, species assumed): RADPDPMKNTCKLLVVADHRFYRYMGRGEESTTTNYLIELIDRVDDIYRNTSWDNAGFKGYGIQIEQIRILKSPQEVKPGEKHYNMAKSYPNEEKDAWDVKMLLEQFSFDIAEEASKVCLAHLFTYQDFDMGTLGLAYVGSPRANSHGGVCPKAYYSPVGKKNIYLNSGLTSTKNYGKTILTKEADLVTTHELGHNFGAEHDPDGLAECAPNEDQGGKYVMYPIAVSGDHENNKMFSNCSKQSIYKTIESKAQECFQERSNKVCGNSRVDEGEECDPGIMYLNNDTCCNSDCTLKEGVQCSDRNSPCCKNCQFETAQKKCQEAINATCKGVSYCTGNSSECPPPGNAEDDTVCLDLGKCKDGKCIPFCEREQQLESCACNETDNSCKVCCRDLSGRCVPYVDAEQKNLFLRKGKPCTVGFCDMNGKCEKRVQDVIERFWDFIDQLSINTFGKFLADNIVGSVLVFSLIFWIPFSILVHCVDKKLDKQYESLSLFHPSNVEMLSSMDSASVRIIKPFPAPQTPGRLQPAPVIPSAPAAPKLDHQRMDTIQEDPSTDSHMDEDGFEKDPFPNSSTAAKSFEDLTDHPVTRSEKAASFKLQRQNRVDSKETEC
The subject of another data set is MMP-2. As to the kind of experiment: kinetic assay with fluorogenic peptide substrate, MMP-2. In kind it is biochemical, human.
A short description of data set [4]: competitive ELISA, affinity of mAbs toward their immunizing hapten. To be noted: concentration of soluble hapten for 50% binding. The procedure:
Supernatants of the growing hybridomas were screened for antibodies reactive with ZnTCPP, CoTCPP or Imisdp using direct ELISA in which respective hapten-BSA (3 μg/ml in PBS) was coated to Nunc maxisorp plates. The coating was performed at 4° C. overnight and incubation with antibodies at 20° C. for 1 h. HRP-conjugated anti-mouse mAb (Sigma) was used as the secondary antibody and 2,2′-azino-bis (3-ethylbenzthiazoline-6-sulphonic acid, ABTS, Sigma) was used as substrate. PBS containing 0.005% v/v Tween 20 (PBST) was used as washing reagent. The dilution buffer was PBS. A602 was recorded by microplate reader in […]luor Plus spectrometer (Tecan, Austria). As control supernatants were incubated with BSA coated plates in the same manner Absorbance values above 0.5 millioptical density were considered as positive.
Different dilutions of hybridoma supernatant were incubated with hapten-BSA coated plates following the steps described earlier. Titration curve was plotted and the titer dilution was determined at 50% of binding. Supernatants diluted to the titer concentration were preincubated with soluble ZnTCPP, CoTCPP or Imisdp compounds for 30 minutes and then transferred to hapten-coated microtiter plates following the steps described previously. The estimated dissociation constant was the concentration of soluble hapten required to attain 50% binding.
On the technique in general: An ELISA detects its analyte on a solid surface through an enzyme-linked reagent.

The target of a further data set is MT1-MMP (MMP-14) (Homo sapiens, UniProt P50281). As to the kind of experiment: kinetic assay with fluorogenic peptide substrate, MT1-MMP. It is filed as biochemical. Particulars: Table 4.
The next data set concerns MMP-9. As to the kind of experiment: kinetic assay with fluorogenic peptide substrate, MMP-9. It is filed as biochemical, human.
MMP-9, sequence (P14780 107-444 limits assumed): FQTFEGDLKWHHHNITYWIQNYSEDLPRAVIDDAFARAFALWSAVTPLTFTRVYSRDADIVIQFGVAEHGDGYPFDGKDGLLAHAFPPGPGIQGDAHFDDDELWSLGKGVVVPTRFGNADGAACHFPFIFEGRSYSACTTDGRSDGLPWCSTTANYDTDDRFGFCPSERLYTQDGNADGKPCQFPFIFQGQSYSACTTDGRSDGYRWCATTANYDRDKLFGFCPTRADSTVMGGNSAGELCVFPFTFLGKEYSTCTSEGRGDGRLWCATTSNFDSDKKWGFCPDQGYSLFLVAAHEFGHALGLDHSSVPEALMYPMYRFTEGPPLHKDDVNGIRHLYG

For `O=C(C[C@H](CSc1ccccc1)C(=O)O)c1ccc(-c2ccc(Cl)cc2)cc1` [BAY12-9566], the “clinical efficacy in inhibiting metastasis” value in the data set with metastasis is “no clinical efficacy”. For the same molecule, the severe side effects result in [1] is “liver abnormalities, anemia, shoulder and back pain, thrombocytopenia, nausea, fatigue, diarrhea and deep vein thrombosis”.

For `COc1ccc(S(=O)(=O)N(Cc2cccnc2)[C@@H](C(=O)NO)C(C)C)cc1` [CGS27023A], the severe side effects result in [1] was “widespread maculopapular rash”.

In general, Ki refers to the dissociation constant of the complex between target and ligand, obtained from inhibition or displacement. For the molecule `O=S(=O)(CC1CS1)c1ccc(Oc2ccccc2)cc1` (stereo not drawn) [SB-3CT, reference compound], the “cell surface gelatinolytic activity” value in data set [2] was “inhibition observed”. In addition, the Ki at MT1-MMP was 0.11 µM.

Take `CNC(=O)[C@H](Cc1ccccc1)NC(=O)[C@H](CC(C)C)[C@H](CSc1cccs1)C(=O)NO` [batimastat]: in data set [3], the “metabolic stability and oral bioavailability” value is “low”.

Consider `CNC(=O)[C@@H](NC(=O)[C@H](CC(C)C)[C@H](O)C(=O)NO)C(C)(C)C` [marimastat], for which the “clinical efficacy in inhibiting metastasis” value in the data set with metastasis is “no clinical efficacy”. For the same molecule, the severe side effects result in [1] is given as “muscoloskeletal problems”.

B1: 15E12: monoclonal antibody, IgG2a, raised against the hapten ZnTCPP (antibody)
heavy: EGPGLVAPSQSLSITCTVSGISLSSYDISWIRQPPGKGLEWLGVMETWSGGGTENYNSAFMETSRLSISKDNSKRQVFLNMETNSVQIDDTATYYCIGRLHYYGYWFLDVWDQG
light: EMETTQTPLSLPVSLGDQASISCRSSQSIVQSNGNTYLDWYLQKPGQSPKLLIYKVSNERFSGVPDRFSGSGSGTDFTLKISRVEADDLGVYYCFQGSHVPYTFGGG
modifications: 15E12 mAb heavy chain; 15E12 mAb light chain
notes: monoclonal antibody, IgG2a, raised against the hapten ZnTCPP
Usually IC50 stands for the concentration at which inhibition is half-maximal. Read a high IC50 as weaker potency in that assay. Usually Kd stands for the concentration at which binding is half-saturated. Higher therefore signals a looser complex. For the molecule B1, the IC50 in the data set with TACE (ADAM-17), in the data set with MMP-2 (Table 4), with MT1-MMP (MMP-14) and in the data set with MMP-9 (Table 4) was over 30 µM each time. The “inhibition of proteolytic activity of MMP-2” value with MMP-2 (continuous fluorometric assay) is “did not show inhibitory effect”. In addition, the Kd in [4] was determined as 0.01 µM. In addition, in the data set with MMP-9 (continuous fluorometric assay), the “inhibition of proteolytic activity of MMP-9” value is listed as “did not show inhibitory effect”.
